From PubChem BioAssay (NCI)
“And” between values parts separate entries of the source, which are not always exact repeats. Equal entries are not always repeated.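 Step 1: Grow cells in 96-well plates. Step 2: Expose to compound for 48 hours at 5 concentrations. Step 3: Interpolate endpoints linearly; if unreached, use highest concentration. GI50 is the concentration that inhibits growth by half. TGI is the concentration that stops growth completely.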

How the values were obtained:
Experiment in all cases: NCI anticancer screen, dose series, 48 h
[1] = tested on: COLO 205 colon
[2] = tested on: A549 NSCLC
[3] = tested on: ACHN renal
[4] = tested on: SNB-75 CNS
[5] = tested on: OVCAR-5 ovarian
[6] = tested on: SF-539 CNS
[7] = tested on: MOLT-4 leukemia
[8] = tested on: MDA-MB-435
[9] = tested on: NCI-H226 lung
[10] = tested on: CAKI-1 renal

## NC(=O)CCSC(CC(=O)c1ccc(Cl)cc1)c1ccc(Cl)cc1 (centres undefined)
[1]
  TGI: > 100 µM
[2]
  TGI: > 100 µM
[3]
  TGI: > 100 µM
[4]
  TGI: 90.7 µM
[5]
  TGI: > 100 µM
[6]
  TGI: 39.4 µM
[7]
  TGI: 35.8 µM
[8]
  TGI: 39.9 µM
[9]
  TGI: > 100 µM
[10]
  TGI: 42.6 µM

## COC(=O)c1ccc2c(c1)sc1nc(-c3ccc(OC)cc3)cn12
[1]
  TGI: > 100 µM
[2]
  TGI: > 100 µM
[3]
  TGI: > 100 µM
[4]
  TGI: > 100 µM
[5]
  TGI: > 100 µM
[6]
  TGI: > 100 µM
[7]
  TGI: > 100 µM
[8]
  TGI: > 100 µM
[9]
  TGI: > 100 µM
[10]
  TGI: > 100 µM

## Cc1ccc2c3c1[C@@H]1O[C@@H]1c1cccc(c1-3)[C@@H]1O[C@H]21
[1]
  TGI: 33.9 µM
[2]
  TGI: 34.1 µM
[3]
  TGI: 31 µM
[4]
  TGI: 15.7 µM
[5]
  TGI: 34 µM
[7]
  TGI: 12.8 µM
[8]
  TGI: 31.4 µM
[9]
  TGI: 84.7 µM
[10]
  TGI: 32.9 µM

## Cc1cc2c(cc1Cl)SC(c1ccccc1O)NS2(=O)=O (centres undefined)
[1]
  TGI: 69 µM
[2]
  TGI: > 100 µM
[3]
  TGI: > 100 µM
[4]
  TGI: > 100 µM
[5]
  TGI: > 100 µM
[6]
  TGI: > 100 µM
[7]
  TGI: > 100 µM
[8]
  TGI: > 100 µM
[9]
  TGI: > 100 µM
[10]
  TGI: > 100 µM

## Cc1ccc(C(=O)Nc2ncn(C3CC(O)C(CO)O3)c(=O)n2)cc1 (centres undefined)
[1]
  TGI: > 100 µM
[2]
  TGI: > 100 µM
[4]
  TGI: > 100 µM
[5]
  TGI: > 100 µM
[6]
  TGI: > 100 µM
[7]
  TGI: 97.3 µM
[9]
  TGI: > 100 µM
[10]
  TGI: > 100 µM

## CC(C)(C)c1cc(-c2nc3ccc(N4CCN(CCO)CC4)cc3[nH]2)cc(C(C)(C)C)c1O
[1]
  GI50: 2.21 µM
  TGI: 4.78 µM
[2]
  GI50: 3.51 µM
  TGI: > 100 µM
[3]
  GI50: 3.39 µM
  TGI: > 100 µM
[4]
  GI50: 1.21 µM
  TGI: 4.55 µM
[6]
  GI50: 2.13 µM
  TGI: 4.91 µM
[9]
  GI50: 21.5 µM
  TGI: > 100 µM
[10]
  GI50: 1.97 µM
  TGI: 4.45 µM

## N=C(N)c1ccc(N=Nc2c(O)ccc3cc4c(N=Nc5ccc(C(=N)N)cc5)c(O)ccc4cc23)cc1
[1]
  TGI: > 100 µM
[2]
  TGI: > 100 µM
[3]
  TGI: > 100 µM
[4]
  TGI: > 100 µM
[5]
  TGI: > 100 µM
[6]
  TGI: > 100 µM
[7]
  TGI: > 100 µM
[8]
  TGI: > 100 µM
[9]
  TGI: > 100 µM
[10]
  TGI: > 100 µM

## CCCCCCCCCCCCSC(=S)c1c(C)[nH]n(CCCCCCCCCCCC)c1=O
[1]
  TGI: > 100 µM
[2]
  TGI: > 100 µM
[3]
  TGI: > 100 µM
[4]
  TGI: > 100 µM
[5]
  TGI: > 100 µM
[6]
  TGI: > 100 µM
[7]
  TGI: > 100 µM
[9]
  TGI: > 100 µM
[10]
  TGI: > 100 µM

## N#Cc1c(-c2ccc(Cl)cc2)c2c([nH]c1=O)-c1cc([N+](=O)[O-])ccc1CCC2
[1]
  TGI: 49.7 µM
[2]
  TGI: 82.9 µM
[3]
  TGI: > 100 µM
[4]
  TGI: 78.3 µM
[5]
  TGI: 37.6 µM
[6]
  TGI: 35 µM
[7]
  TGI: > 100 µM
[8]
  TGI: > 100 µM
[9]
  TGI: 44.2 µM
[10]
  TGI: 52.6 µM

## CCN(CCO)CCNc1ccc(C)c2sc3ccccc3c(=O)c12
[1]
  TGI: 3.12 µM
[2]
  TGI: 15.2 µM
[3]
  TGI: 15 µM
[4]
  TGI: 12 µM
[5]
  TGI: 12.5 µM
[6]
  TGI: 10.3 µM
[7]
  TGI: 18.8 µM
[8]
  TGI: 3.74 µM
[9]
  TGI: 14 µM
[10]
  TGI: 12.6 µM

## COc1ccc(N=Cc2ccc(N(CCC#N)S(=O)(=O)c3ccccc3)cc2C)cc1
[1]
  TGI: 96.3 µM
[2]
  TGI: > 100 µM
[3]
  TGI: > 100 µM
[4]
  TGI: > 100 µM
[5]
  TGI: > 100 µM
[6]
  TGI: > 100 µM
[7]
  TGI: > 100 µM
[9]
  TGI: > 100 µM
[10]
  TGI: > 100 µM

## COc1cc(/C=C2\N=C(c3ccccc3)N(c3nc4ccc(Sc5ccccc5)cc4[nH]3)C2=O)cc(OC)c1OC
[1]
  TGI: 33 µM
[2]
  TGI: > 100 µM
[3]
  TGI: 57.7 µM
[4]
  TGI: > 100 µM
[5]
  TGI: > 100 µM
[7]
  TGI: 78.5 µM
[8]
  TGI: 23 µM
[10]
  TGI: > 100 µM

## O=c1c(-c2ccccc2)c(SCCN2CCOCC2)n(-c2ccccc2)c(=S)n1-c1ccccc1
[1]
  TGI: > 100 µM
[3]
  TGI: > 100 µM
[4]
  TGI: 87.6 µM
[5]
  TGI: > 100 µM
[6]
  TGI: > 100 µM
[7]
  TGI: > 100 µM
[8]
  TGI: > 100 µM
[9]
  TGI: > 100 µM
[10]
  TGI: > 100 µM

## C=C1c2nc3ccccc3n2C=C(c2ccc(Cl)cc2)N1c1ccc(OCCN2CCCCC2)cc1
[1]
  GI50: > 100 µM
  TGI: > 100 µM
[2]
  GI50: > 100 µM
  TGI: > 100 µM
[3]
  GI50: > 100 µM
  TGI: > 100 µM
[5]
  GI50: > 100 µM
  TGI: > 100 µM
[6]
  TGI: > 100 µM
[7]
  GI50: 0.553 µM
  TGI: > 45 µM and 9.22 µM
[8]
  GI50: 0.772 µM
  TGI: 45 µM and > 100 µM
[9]
  TGI: > 100 µM
[10]
  TGI: > 45 µM

## O=C([CH-]C(=O)c1ccccc1)c1ccccc1.O=C([CH-]C(=O)c1ccccc1)c1ccccc1.O=C([CH-]C(=O)c1ccccc1)c1ccccc1.[Cl-].[Hf+4]
[1]
  GI50: 23.9 µM
  TGI: > 100 µM
[2]
  GI50: 16.7 µM
  TGI: 86.2 µM
[3]
  GI50: 33.9 µM
  TGI: > 100 µM
[4]
  GI50: 9.43 µM
  TGI: > 100 µM
[5]
  GI50: 30.8 µM
  TGI: > 100 µM
[6]
  GI50: 17.2 µM
  TGI: 41.8 µM
[7]
  GI50: 11.1 µM
  TGI: > 100 µM
[9]
  GI50: 13 µM
  TGI: 54 µM
[10]
  GI50: 14.2 µM
  TGI: 52.4 µM

## Cn1c2cn[nH]c(=O)c2c2ccc3ccccc3c21
[1]
  TGI: > 100 µM
[2]
  TGI: > 100 µM
[3]
  TGI: 45.9 µM
[4]
  TGI: 38.3 µM
[5]
  TGI: > 100 µM
[6]
  TGI: > 100 µM
[7]
  TGI: > 100 µM
[8]
  TGI: > 100 µM
[9]
  TGI: > 100 µM
[10]
  TGI: > 100 µM

## Cc1cn(Cc2cn(CC3OC(n4cc(C)c(=O)[nH]c4=O)CC3O)nn2)c(=O)[nH]c1=O (centres undefined)
[1]
  TGI: > 100 µM
[2]
  TGI: > 100 µM
[3]
  TGI: > 100 µM
[4]
  TGI: > 100 µM
[5]
  TGI: > 100 µM
[6]
  TGI: > 100 µM
[7]
  TGI: > 100 µM
[8]
  TGI: > 100 µM
[9]
  TGI: > 100 µM
[10]
  TGI: > 100 µM
